From paper PMC10082216 (Nature Communications, 2023)
Like-named read-outs stand apart in the source and are kept apart here.

Assay: TD-6450 phase I clinical study (SAD/MAD): pharmacokinetics
Format: in vivo, human
Conditions: human
Procedure: Primary and secondary outcomes were pre-defined as follows: Safety and tolerability as a primary outcome, pharmacokinetics as a secondary outcome. Safety and tolerability were evaluated using standard measures, including adverse event (AE) monitoring, clinical laboratory tests (hematology, serum chemistry, coagulation, and urinalysis), vital signs, physical examinations, and 12-lead electrocardiograms (ECGs). […]
This study was conducted in two parts, Part A (SAD) and Part B (MAD). For the Part A, the age of enrolled subjects ranged from 20 to 60 years, with a mean age range of 32.1 to 46.2 years. Most subjects were male (73 total subjects) and most were white (55 subjects) or black (22 subjects). For Part B of the study, ages ranged from 23 to 60 years with a similar mean age across treatment groups. Most subjects were male (25 total subjects) and all were either white (18 subjects) or black (12 subjects). For each part of the study, the mean body mass index (BMI) and creatinine clearance were similar across treatment groups. […] Part A: Healthy subjects were sequentially enrolled and randomly assigned to each dose cohort (up to 10 dose-ascending cohorts were planned, including a fed arm in the food effect cohort) to receive either a single dose of TD-6450 or placebo. For each dose cohort, 8 subjects were randomized in a 3:1 ratio (6 subjects received TD-6450 and 2 subjects received placebo). The starting dose of TD-6450 was 0.5 mg with a planned maximum dose of 1000 mg. Upon review of the 500-mg cohort PK data, the decision was made to not escalate to the 1000-mg cohort because of exposure saturation at ≥ 500 mg. The following doses were administered: 0.5 mg, 1.5 mg, 5 mg, 15 mg, 30 mg, 60 mg, 120 mg, 240 mg, and 500 mg. Part B: Healthy subjects were sequentially enrolled in 3 ascending dose cohorts (TD-6450 60 mg, 120 mg, and 240 mg) and randomly assigned to receive either TD-6450 or placebo as once daily doses for 14 days. For each dose cohort, 10 subjects were randomized in a 4:1 ratio (8 subjects received TD-6450 and 2 subjects received placebo). Blinded safety, tolerability, and available PK data after each dose cohort were reviewed by the Safety Data Review Committee (SDRC) before escalation to the next dosing cohort for both part A and B. Subjects of the clinical study were randomly assigned to each cohort. Randomizations codes were assigned to the subjects. All study subjects, study investigators, and the sponsor’s staff involved in the conduct of the study were blinded to treatment assignment. The only personnel who had access to the randomization code before database lock were: The pharmacist or pharmacy staff member who prepared drug or placebo capsules for administration to the subject according to the randomization code and the bioanalytical contract laboratory that analyzed the PK samples (plasma and urine).

With CNC(=O)N1C[C@@H](C)N(c2ccc(C(=O)Nc3ccc(-c4ccc(-c5c[nH]c([C@@H]6CCCN6C(=O)[C@@H](NC(=O)OC)C(C)C)n5)cc4)c(OC(F)(F)F)c3)cn2)C[C@@H]1C [TD-6450] the concentration at 144 h (female, plasma, oral, 15 mg, Female subjects, SAD arm NCT02022306, Dose 15.00, 144 Hours, read-out: Concentration) was 4 ng/mL, the concentration at 168 h (female, plasma, oral, 15 mg, Female subjects, SAD arm NCT02022306, Dose 15.00, 168 Hours, read-out: Concentration) was 3.58 ng/mL and the concentration at 3 h (female, plasma, oral, 30 mg, Female subjects, SAD arm NCT02022306, Dose 30.00, 3 Hours, read-out: Concentration) was 24.8 ng/mL. It also gave a concentration at 4 h (female, plasma, oral, 30 mg, Female subjects, SAD arm NCT02022306, Dose 30.00, 4 Hours, read-out: Concentration) of 40.6 ng/mL, a concentration at 6 h (female, plasma, oral, 30 mg, Female subjects, SAD arm NCT02022306, Dose 30.00, 6 Hours, read-out: Concentration) of 70.6 ng/mL and a concentration at 8 h (female, plasma, oral, 30 mg, Female subjects, SAD arm NCT02022306, Dose 30.00, 8 Hours, read-out: Concentration) of 69.5 ng/mL. The concentration at 12 h (female, plasma, oral, 30 mg, Female subjects, SAD arm NCT02022306, Dose 30.00, 12 Hours, read-out: Concentration) was 45.3 ng/mL, the concentration at 15 min (female, plasma, oral, 30 mg, Female subjects, SAD arm NCT02022306, Dose 30.00, 15 Minutes, read-out: Concentration) was 0 ng/mL and the concentration at 24 h (female, plasma, oral, 30 mg, Female subjects, SAD arm NCT02022306, Dose 30.00, 24 Hours, read-out: Concentration) was 34.1 ng/mL. For the same molecule, the concentration at 48 h (female, plasma, oral, 30 mg, Female subjects, SAD arm NCT02022306, Dose 30.00, 48 Hours, read-out: Concentration) was 22.3 ng/mL, the concentration at 72 h (female, plasma, oral, 30 mg, Female subjects, SAD arm NCT02022306, Dose 30.00, 72 Hours, read-out: Concentration) was 16.1 ng/mL and the concentration at 96 h (female, plasma, oral, 30 mg, Female subjects, SAD arm NCT02022306, Dose 30.00, 96 Hours, read-out: Concentration) was 10.8 ng/mL. The concentration at 120 h (female, plasma, oral, 30 mg, Female subjects, SAD arm NCT02022306, Dose 30.00, 120 Hours, read-out: Concentration) was 9.27 ng/mL, the concentration at 144 h (female, plasma, oral, 30 mg, Female subjects, SAD arm NCT02022306, Dose 30.00, 144 Hours, read-out: Concentration) was 6.93 ng/mL and the concentration at 168 h (female, plasma, oral, 30 mg, Female subjects, SAD arm NCT02022306, Dose 30.00, 168 Hours, read-out: Concentration) was 5.12 ng/mL. It also gave a concentration at 1 h (female, plasma, oral, 60 mg, Female subjects, SAD arm NCT02022306, Dose 60.00, 1 Hour, read-out: Concentration) of 7.46 ng/mL, a concentration at 2 h (female, plasma, oral, 60 mg, Female subjects, SAD arm NCT02022306, Dose 60.00, 2 Hours, read-out: Concentration) of 114 ng/mL and a concentration at 3 h (female, plasma, oral, 60 mg, Female subjects, SAD arm NCT02022306, Dose 60.00, 3 Hours, read-out: Concentration) of 70.5 ng/mL. It also gave a concentration at 4 h (female, plasma, oral, 60 mg, Female subjects, SAD arm NCT02022306, Dose 60.00, 4 Hours, read-out: Concentration) of 94.5 ng/mL, a concentration at 6 h (female, plasma, oral, 60 mg, Female subjects, SAD arm NCT02022306, Dose 60.00, 6 Hours, read-out: Concentration) of 109 ng/mL and a concentration at 8 h (female, plasma, oral, 60 mg, Female subjects, SAD arm NCT02022306, Dose 60.00, 8 Hours, read-out: Concentration) of 87.4 ng/mL. For the same molecule, the concentration at 12 h (female, plasma, oral, 60 mg, Female subjects, SAD arm NCT02022306, Dose 60.00, 12 Hours, read-out: Concentration) was 60.5 ng/mL, the concentration at 15 min (female, plasma, oral, 60 mg, Female subjects, SAD arm NCT02022306, Dose 60.00, 15 Minutes, read-out: Concentration) was 0 ng/mL and the concentration at 24 h (female, plasma, oral, 60 mg, Female subjects, SAD arm NCT02022306, Dose 60.00, 24 Hours, read-out: Concentration) was 38.9 ng/mL. It also gave a concentration at 30 min (female, plasma, oral, 60 mg, Female subjects, SAD arm NCT02022306, Dose 60.00, 30 Minutes, read-out: Concentration) of 0.74 ng/mL, a concentration at 48 h (female, plasma, oral, 60 mg, Female subjects, SAD arm NCT02022306, Dose 60.00, 48 Hours, read-out: Concentration) of 29.3 ng/mL and a concentration at 72 h (female, plasma, oral, 60 mg, Female subjects, SAD arm NCT02022306, Dose 60.00, 72 Hours, read-out: Concentration) of 22.4 ng/mL. For the same molecule, the concentration at 96 h (female, plasma, oral, 60 mg, Female subjects, SAD arm NCT02022306, Dose 60.00, 96 Hours, read-out: Concentration) was 17.2 ng/mL, the concentration at 120 h (female, plasma, oral, 60 mg, Female subjects, SAD arm NCT02022306, Dose 60.00, 120 Hours, read-out: Concentration) was 12.8 ng/mL and the concentration at 144 h (female, plasma, oral, 60 mg, Female subjects, SAD arm NCT02022306, Dose 60.00, 144 Hours, read-out: Concentration) was 11.1 ng/mL. The concentration at 168 h (female, plasma, oral, 60 mg, Female subjects, SAD arm NCT02022306, Dose 60.00, 168 Hours, read-out: Concentration) was 8.61 ng/mL, the concentration at 3 h (in vivo, 1.5 mg, Male subjects, SAD arm NCT02022306, Dose 1.50, 3 Hours, read-out: Concentration) was 1.48 ng/mL and the concentration at 4 h (in vivo, 1.5 mg, Male subjects, SAD arm NCT02022306, Dose 1.50, 4 Hours, read-out: Concentration) was 1.92 ng/mL. It also gave a concentration at 6 h (in vivo, 1.5 mg, Male subjects, SAD arm NCT02022306, Dose 1.50, 6 Hours, read-out: Concentration) of 1.07 ng/mL, a concentration at 120 h (in vivo, 5 mg, Female subjects, SAD arm NCT02022306, Dose 5.00, 120 Hours, read-out: Concentration) of 1.07 ng/mL and a concentration at 48 h (in vivo, 5 mg, Male subjects, SAD arm NCT02022306, Dose 5.00, 48 Hours, read-out: Concentration) of 1.81 ng/mL. It also gave a concentration at 120 h (in vivo, 5 mg, Male subjects, SAD arm NCT02022306, Dose 5.00, 120 Hours, read-out: Concentration) of 1.48 ng/mL, a concentration at 168 h (in vivo, 15 mg, Male subjects, SAD arm NCT02022306, Dose 15.00, 168 Hours, read-out: Concentration) of 2.59 ng/mL and a concentration at 2 h (in vivo, 30 mg, Male subjects, SAD arm NCT02022306, Dose 30.00, 2 Hours, read-out: Concentration) of 8.22 ng/mL. It also gave a concentration at 30 min (in vivo, 120 mg, Male subjects, SAD arm NCT02022306, Dose 120.00, 30 Minutes, read-out: Concentration (ng/ml)) of 1.01 ng/mL, a concentration at 168 h (in vivo, 120 mg, Male subjects, SAD arm NCT02022306, Dose 120.00, 168 Hours, read-out: Concentration (ng/ml)) of 10.2 ng/mL and a concentration at 312 h (in vivo, 240 mg, Male subjects, SAD arm NCT02022306, Dose 240.00, 312 Hours, read-out: Concentration (ng/ml)) of 4.88 ng/mL. The “TD-6450 concentration” value (in vivo, 48 h) was 107.00 ng/mL, the “TD-6450 concentration” value (in vivo, 72 h) was 273.00 ng/mL and the “TD-6450 concentration” value (in vivo, 96 h) was 123.00 ng/mL. The “TD-6450 concentration” value (in vivo, 120 h) was 102.00 ng/mL, the “TD-6450 concentration” value (in vivo, 144 h) was 74.40 ng/mL and the “TD-6450 concentration” value (in vivo, 336 h) was 6.38 ng/mL. The Cmax (plasma, oral, 60 mg, SAD 60 mg, read-out: Cmax Mean ± SD) was 123 ± 60.3 nM, the half-life (plasma, oral, 60 mg, SAD 60 mg, read-out: t1/2 Mean ± SD (converted)) was 61.4 ± 11.8 h and the TD-6450 concentration (male, in vivo) was 0.00 ng/mL. The TD-6450 concentration (male, in vivo, 2 h) was 179.00 ng/mL, the TD-6450 concentration (male, in vivo, 3 h) was 273.00 ng/mL and the TD-6450 concentration (male, in vivo, 4 h) was 303.00 ng/mL. It also gave a TD-6450 concentration (male, in vivo, 6 h) of 309.00 ng/mL, a TD-6450 concentration (male, in vivo, 12 h) of 216.00 ng/mL and a TD-6450 concentration (male, in vivo, 24 h) of 144.00 ng/mL. For the same molecule, the TD-6450 concentration (male, in vivo, 48 h) was 90.40 ng/mL, the TD-6450 concentration (male, in vivo, 72 h) was 61.10 ng/mL and the TD-6450 concentration (male, in vivo, 96 h) was 40.80 ng/mL.
